# Molecular target: T1, PDGF receptor (Rattus norvegicus, UniProt Q05030)
# T1 construct: cultured rat mesangial cells which are known to have the PDGF receptor; endogenous in cells; host or cells: primary mesangial cells cultured from glomeruli of Wistar-Kyoto rats (Charles River Japan), more than 5 passages
# Experiment: PDGF receptor autophosphorylation inhibition in cultured rat mesangial cells
# Type: cell-based
# Conditions: PDGF-BB 50 ng/ml
# Procedure: 1. Cultivation of rat mesangial cells
# The glomerulus-derived adhesive cells were subcultured several times to obtain mesangial cells. The mesangial cells subcultured more than 5 passages were used for the assay.
# 2.Evaluation of PDGF receptor autophosphorylation inhibition
# The mesangial cells were seeded in 24-well flat-bottom microtiter plates and then cultured in the medium containing 10% FCS for 2 days. When the cells were grown to about 3×10^4 cells per well, the medium was changed to the medium containing 0.5% FCS, the cultivation was continued for another 3 days, and then cell growth was arrested. The culture medium was removed, the adhered cells were washed with 500 μl of the medium, and 250 μl of the medium containing 0.1% bovine serum albumin (hereinafter abbreviated to BSA) was then added. A test drug dissolved in 1.38 μl of dimethyl sulfoxide (hereinafter abbreviated to DMSO) was added to this culture medium, and the admixture was incubated at 37° C. for 1 hour. Recombinant human platelet-derived growth factor BB chain (hereinafter abbreviated to PDGF-BB) was dissolved in the medium containing 0.1% BSA, 25 μl per well of the solution was added at final 50 ng/ml, and the incubation was continued at 37° C. for 10 minutes. […] The cells were allowed to stand at 4° C. for 30 minutes for lysis, and the resulting solution was thoroughly admixed with an equal amount of Tris-buffered physiological saline containing 1% sodium dodecyl sulfate (hereinafter abbreviated to SDS). […] After the electrophoresis, proteins in the gel were electrically transferred to a PVDF filter, which was then subjected to Western blotting using monoclonal antibodies against phosphotyrosine. Bands of PDGF receptor (molecular weight: about 180 Kda) which were autophosphorylated due to the addition of PDGF-BB were quantitated by a densitometer. Autophosphorylation rates for individual wells with drugs were calculated by setting measurements for PDGF receptor autophosphorylation in the wells without drugs in the presence and absence of PDGF-BB as 100% and 0%, respectively.
# T1 sequence (Q05030 32-1097): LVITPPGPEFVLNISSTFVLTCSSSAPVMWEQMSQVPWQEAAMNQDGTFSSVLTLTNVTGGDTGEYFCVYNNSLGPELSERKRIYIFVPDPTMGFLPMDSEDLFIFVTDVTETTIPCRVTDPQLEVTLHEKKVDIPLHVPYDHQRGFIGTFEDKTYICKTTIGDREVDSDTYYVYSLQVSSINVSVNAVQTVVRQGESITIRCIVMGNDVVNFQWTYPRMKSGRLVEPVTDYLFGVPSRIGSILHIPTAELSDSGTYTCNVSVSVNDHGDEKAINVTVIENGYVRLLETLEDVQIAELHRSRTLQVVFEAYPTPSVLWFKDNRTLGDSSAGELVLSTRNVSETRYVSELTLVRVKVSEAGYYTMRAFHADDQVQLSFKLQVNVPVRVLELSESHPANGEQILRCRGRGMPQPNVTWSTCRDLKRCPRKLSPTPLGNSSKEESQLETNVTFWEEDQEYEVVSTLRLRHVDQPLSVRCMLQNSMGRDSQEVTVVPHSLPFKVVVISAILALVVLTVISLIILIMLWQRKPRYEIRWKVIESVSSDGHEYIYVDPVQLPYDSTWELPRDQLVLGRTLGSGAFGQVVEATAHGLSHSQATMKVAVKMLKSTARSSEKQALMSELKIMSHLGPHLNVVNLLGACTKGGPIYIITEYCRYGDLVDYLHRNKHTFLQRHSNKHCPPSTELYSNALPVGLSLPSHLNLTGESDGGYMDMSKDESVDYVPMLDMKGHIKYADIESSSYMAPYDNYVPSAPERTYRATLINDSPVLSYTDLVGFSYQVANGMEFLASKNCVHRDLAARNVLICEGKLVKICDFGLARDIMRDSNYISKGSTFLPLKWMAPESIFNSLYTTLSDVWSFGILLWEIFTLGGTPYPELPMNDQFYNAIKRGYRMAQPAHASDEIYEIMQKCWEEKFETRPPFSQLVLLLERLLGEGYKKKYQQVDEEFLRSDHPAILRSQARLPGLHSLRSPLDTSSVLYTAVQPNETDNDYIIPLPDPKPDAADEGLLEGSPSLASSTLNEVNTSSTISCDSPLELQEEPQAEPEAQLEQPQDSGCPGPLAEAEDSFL
row,Compound,IC50 [µM]
1,"COc1ccc(NC(=O)N(C)c2ccc(Oc3ccnc4cc(OC)c(OC)cc34)cc2)cc1 [Compound 200, N-Methyl-N-{4-[(6,7-dimethoxy-4-quinolyl)oxy]phenyl}-N'-(4-methoxyphenyl)urea]",0.004
2,"COc1cc2nccc(Oc3ccc(C(=O)c4ccc(N5CCOCC5)cc4)cc3)c2cc1OC [Compound 288, {4-[(6,7-Dimethoxy-4-quinolyl)oxy]phenyl}[4-morpholinophenyl]methanone]",0.024
3,"COc1cc2nccc(Oc3ccc(NC(=O)Nc4ccccc4SC)cc3)c2cc1OC [Compound 276, N-(2-Methylthiophenyl)-N'-{4-[(6,7-dimethoxy-4-quinolyl)oxy]phenyl}urea]",0.005
4,"CCCCOc1ccc(C(=O)Nc2ccc(Oc3ccnc4cc(OC)c(OC)cc34)cc2)cc1 [Compound 74, N-{4-[(6,7-Dimethoxy-4-quinolinyl)oxy]phenyl}-(4-butoxyphenyl)carboxamide]",0.34
5,"COc1cccc(NC(=O)Nc2ccc(Oc3ncnc4cc(OC)c(OC)cc34)cc2)c1 [Compound 114, N-{4-[(6,7-Dimethoxy-4-quinazolinyl)oxy]phenyl}-N'-(3-methoxyphenyl)urea]",0.004
6,"COc1cc2nccc(Oc3ccc(NC(=O)c4ccc(C(C)=O)cc4)cc3)c2cc1OC [Compound 68, N-{4-[(6,7-Dimethoxy-4-quinolinyl)oxy]phenyl}-(4-acetylphenyl)carboxamide]",0.44
7,"COc1ccc(OC)c(NC(=O)Nc2ccc(Oc3ccnc4cc(OC)c(OC)cc34)cc2)c1 [Compound 258, N-(2,5-Dimethoxyphenyl)-N'-{4-[(6,7-dimethoxy-4-quinolyl)oxy]phenyl}urea]",0.007
8,"COc1cc2nccc(Oc3ccc(NC(=O)NC(=O)c4ccccn4)cc3)c2cc1OC [Compound 240, N-{4-[(6,7-dimethoxy-4-quinolyl)oxy]phenyl}-N'-(2-pyridinecarbonyl)urea]",0.15
9,"COc1cc2nccc(Oc3ccc(NC(=O)Nc4c(F)cccc4F)cc3)c2cc1OC [Compound 263, N-(2,6-Difluorophenyl)-N'-{4-[(6,7-dimethoxy-4-quinolyl)oxy]phenyl}urea]",0.004
10,"COc1cc2nccc(Oc3ccc(NC(=O)Nc4ccccc4O)cc3)c2cc1OC [Compound 281, N-(2-Hydroxyphenyl)-N'-{4-[(6,7-dimethoxy-4-quinolyl)oxy]phenyl}urea]",0.012
11,"COc1ccccc1NC(=O)Nc1ccc(Oc2ncnc3cc(OC)c(OC)cc23)cc1 [Compound 113, N-{4-[(6,7-Dimethoxy-4-quinazolinyl)oxy]phenyl)-N'-(2-methoxyphenyl)urea]",0.004
12,"N-(2-Chloro-3-methylphenyl)-N'-{4-[(6,7-dimethoxy-4-quinolyl)oxy]phenyl}urea [Compound 243]",0.014
13,"CCCCc1ccccc1NC(=O)Nc1ccc(Oc2ccnc3cc(OC)c(OC)cc23)cc1 [Compound 232, N-(2-n-Butylphenyl)-N'-(4-[(6,7-dimethoxy-4-quinolyl)oxy]phenyl}urea]",0.018
14,"COCCNC(=O)Nc1ccc(Oc2ccnc3cc(OC)c(OC)cc23)cc1 [Compound 246, N-(2-Methoxyethyl)-N'-{4-[(6,7-dimethoxy-4-quinolyl)oxy]phenyl}urea]",0.013

# Other lines, results leading:
row,IC50 [µM],Compound
1,0.18,"COc1cc2nccc(Oc3ccc(NC(=O)c4ccc(Br)cc4)cc3)c2cc1OC [Compound 75, N-{4-[(6,7-Dimethoxy-4-quinolinyl)oxy]phenyl}-(4-bromophenyl)carboxamide]"
2,0.34,"COc1cc2nccc(Oc3ccc(NC(=O)C4CCCC4)cc3)c2cc1OC [Compound 79, N-{4-[(6,7-Dimethoxy-4-quinolinyl)oxy]phenyl}cyclopentanecarboxamide]"
3,0.007,"COc1cc2nccc(Oc3ccc(NC(=O)NC4CCCCC4)cc3)c2cc1OC [Compound 253, N-(Cyclohexyl)-N'-{4-[(6,7-dimethoxy-4-quinolyl)oxy]phenyl}urea]"
4,0.8,"COc1cc2nccc(Oc3ccc(C(=O)c4ccc(C(F)(F)F)cc4)cc3)c2cc1OC [Compound 29, (4-Trifluoromethylphenyl){4-[(6,7-dimethoxy-4-quinolyl)oxy]phenyl}methanone]"
5,0.087,"COc1cc2nccc(Oc3ccc(NC(=O)Nc4ccc([N+](=O)[O-])cc4Cl)cc3)c2cc1OC [Compound 224, N-(2-Chloro-4-nitrophenyl)-N'-{4-[(6,7-dimethoxy-4-quinolyl)oxy]phenyl}urea]"
6,0.01,"COc1cc2nccc(Oc3ccc(NC(=O)Nc4cccc(N)c4)cc3)c2cc1OC [Compound 172, N-(3-Aminophenyl)-N'-{4-[(6,7-dimethoxy-4-quinolyl)oxy]phenyl}urea]"
7,0.016,"COc1cc2nccc(Oc3ccc(NC(=O)Nc4ccc(Cl)cc4[N+](=O)[O-])cc3)c2cc1OC [Compound 238, N-(4-Chloro-2-nitrophenyl)-N'-{4-[(6,7-dimethoxy-4-quinolyl)oxy]phenyl}urea]"
8,0.009,"CCCCNC(=O)Nc1ccc(Oc2ncnc3cc(OC)c(OC)cc23)cc1 [Compound 220, N-(4-[(6,7-Dimethoxy-4-quinazolinyl)oxy]phenyl)-N'-n-butylurea]"
9,0.011,"COc1cc2nccc(Oc3ccc(NC(=O)Nc4ccccc4C(C)C)cc3)c2cc1OC [Compound 166, N-(2-Isopropylphenyl)-N'-{4-[(6,7-dimethoxy-4-quinolyl)oxy]phenyl}urea]"
10,0.055,"COc1cc2nccc(Oc3ccc(NC(=O)Nc4ccc(Cl)c([N+](=O)[O-])c4)cc3)c2cc1OC [Compound 228, N-(4-Chloro-3-nitrophenyl)-N'-{4-[(6,7-dimethoxy-4-quinolyl)oxy]phenyl}urea]"
11,0.003,COc1cc2nccc(Oc3ccc(NC(=O)Nc4ccccc4C(F)(F)F)cc3)c2cc1OC [Compound 54]
12,0.036,"COc1cc2nccc(Oc3ccc(NC(=O)Nc4ccc(N)cc4Cl)cc3)c2cc1OC [Compound 274, N-(4-Amino-2-chlorophenyl)-N'-{4-[(6,7-dimethoxy-4-quinolyl)oxy]phenyl}urea]"
13,0.4,"COc1cc2nccc(Oc3ccc(NC(=O)C4CCCCC4)cc3)c2cc1OC [Compound 63, N-{4-[(6,7-Dimethoxy-4-quinolinyl)oxy]phenyl}-cyclohexanecarboxamide]"
14,0.002,"COc1cc2nccc(Oc3ccc(NC(=O)Nc4cccc5ccccc45)cc3)c2cc1OC [Compound 174, N-{4-[(6,7-Dimethoxy-4-quinolyl)oxy]phenyl}-N'-(1-naphthyl)urea]"
15,0.001,"COc1cc2nccc(Oc3ccc(NC(=O)Nc4ccccc4Cl)cc3)c2cc1OC [Compound 266, N-(2-Chlorophenyl)-N'-{4-[(6,7-dimethoxy-4-quinolyl)oxy]phenyl}urea]"
16,0.003,COc1cc2nccc(Oc3ccc(NC(=O)Nc4ccc(C)cc4)cc3)c2cc1OC [Compound 131]
17,0.05,"COc1cc2nccc(Oc3ccc4[nH]ccc4c3)c2cc1OC [Compound 16, 6,7-Dimethoxy-4-(5-indolyloxy)quinoline]"
18,0.018,"COc1cc(OC)c(NC(=O)Nc2ccc(Oc3ccnc4cc(OC)c(OC)cc34)cc2)cc1Cl [Compound 241, N-(3-Chloro-4,6-dimethoxyphenyl)-N'-{4-[(6,7-dimethoxy-4-quinolyl)oxy]phenyl}urea]"
19,0.043,COc1cc2nccc(Oc3ccc(NC(=O)NC(C)C)cc3)c2cc1OC [Compound 135]

# Reference: patent US6143764A, “Quinoline and quinazoline derivatives inhibiting platelet-derived growth factor receptor autophosphorylation and pharmaceutical compositions containing the same” (priority 1995, dated 2000)
